Laboratory results taken from US20040133038A1, “Method of purifying aromatic polycarboxylic acid” (priority 2001, published 2004).
Like-named read-outs stand apart in the source and are kept apart here.

Test: solubility in water
Format: physicochemical

## O=C(O)c1ccc(-c2ccc(C(=O)O)cc2)cc1 [biphenyldicarboxylic acid]
  solubility in water relative to that of terephthalic acid: 1/10

## O=C(O)c1ccc(C(=O)O)cc1 [terephthalic acid]
  solubility in water: 6.5 g/100 g
600 g of water, 230° C.
  amount dissolved in 600 g of water, calculated from the solubility: 39 g

## O=C(O)c1ccc2cc(C(=O)O)ccc2c1 [naphthalenedicarboxylic acid]
Fraction of the solubility of terephthalic acid
  solubility in water relative to that of terephthalic acid: 1/10

## O=C(O)c1ccc2cc(C(=O)O)ccc2c1 [2,6-naphthalenedicarboxylic acid]
  amount dissolved in 600 g of water, calculated from the solubility: 36 g
